Drawing on the COVID Moonshot data (paper PMC7615835), this text covers IC50 for 84 molecules.

The target of this test is SARS-CoV-2 Main Protease (SARS-CoV-2) (UniProt P0DTD1).

The structures appear in SMILES notation. Values joined by “and” are separate entries in the source; they are usually repeats but may differ in a detail not shown here. Equal entries are not always repeated. Where only a bound is given, the exact number is not on record here.

As usually defined, the IC50 is the concentration at which inhibition is half-maximal.

In turn, `CN(Cc1cccc([N+](=O)[O-])c1)c1cc(Cl)cc(CC(=O)Nc2cncc3ccccc23)c1` returned a 50% inhibitory concentration (IC50) of 1.53 µM. Under `CCNC(=O)CN1CC(C(=O)Nc2cncc3cc(S(C)(=O)=O)ccc23)c2cc(Cl)ccc2C1=O` (centres undefined) stands 0.0675 µM and 0.134 µM. Then `O=C(Cc1cc(Cl)cc(N2CCCCC2)c1)Nc1cncc2ccccc12`, with greater than 9.95 µM; and `COc1ccc(-c2cc(N)n(-c3cc(Cl)cc(CC(=O)Nc4cncc5ccccc45)c3)n2)cc1`, with 2.71 µM. Under `O=C(CCl)N1CCN(C(c2ccccc2)c2ccccc2)CC1` stands 1.98 µM; under `COC(=O)[C@H]1C[C@@H](NC(=O)C(c2cccnc2)N(C(=O)c2cocn2)c2ccc(C(C)(C)C)cc2)CN1C(=O)OC(C)(C)C` (stereo in doubt), 5.32 µM; under `O=C(Cc1cccc(C(F)(F)F)c1)Nc1cncc2ccccc12`, 6.94 µM.

For `C=CC(=O)N(Cc1ccccc1Cl)C(C(=O)NC(C)(C)C)c1cncc2ccccc12` (centres undefined), the IC50 was greater than 99.5 µM.

`O=C(C1CCOc2cc(Cl)ccc21)N(Cc1c[nH]c(=O)[nH]c1=O)c1cncc2ccccc12` (centres undefined) registered a half-inhibitory concentration (IC50) of 7.14 µM. Turning to `O=C(Nc1cncc2ccccc12)C1CCOc2c(OCc3ccccc3)cc(Cl)cc21` (centres undefined), the 50% inhibitory concentration (IC50) is 36.5 µM. Then `CSCCCNC(=O)C(c1cccnc1)N(C(=O)c1cocn1)c1ccc(C(C)(C)C)cc1` (centres undefined), with 3.85 µM; and `CC(C)(C)c1ccc(N(C(=O)c2cc(C3(O)COC3)on2)C(C(=O)NCCc2cccc(F)c2)c2cccnc2)cc1` (centres undefined), with 26.2 µM; and `Cc1ccnc(N)c1NC(=O)C1CCOc2ccc(Cl)cc21` (centres undefined), with 69.5 µM.

Regarding `O=C(c1ccc2nnnn2c1)N1CCn2c(cc3ccccc32)C1`, the IC50 was greater than 99.5 µM. Then `O=C(Cc1cccc(Cl)c1)Nc1[nH]nc2cc(F)ccc12`, with greater than 99.5 µM; and `Cc1noc(C)c1S(=O)(=O)N1CCN(C(=O)CCl)CC1`, with 4.06 µM; and `Cc1nc(CN2Cc3ccc(Cl)cc3C(C(=O)Nc3cncc4ccc(F)cc34)C2)cs1` (centres undefined), with 1.12 µM.

The molecule `O=C(Cc1cccc(Cl)c1)Nc1nnc2ccccn12` gave an IC50 greater than 99.5 µM.

For the molecule `CC(=O)N(CC(=O)Nc1ccc(F)c(Cl)c1)c1cccc(C(F)(F)F)c1`, the concentration for half-maximal inhibition (IC50) is greater than 99.5 µM. Then `O=C(Cc1cc(Cl)cc(Nc2ccc(OCc3ccccn3)c(Cl)c2)c1)Nc1cncc2ccccc12`, with 2.09 µM; and `COc1ccc2nnn(CC(=O)N(Cc3ccccn3)c3ccc(C4CCNCC4)cc3)c2c1`, with 38.8 µM. The molecule `COC1CCC2OCCN(C(=O)c3ccc4nc[nH]c4c3)C2C1` (centres undefined) came in with a 50% inhibitory concentration (IC50) greater than 99.5 µM. Under `Cn1c(=O)oc2cc(S(=O)(=O)Nc3ccc4ncccc4c3)ccc21` stands greater than 99.5 µM; under `COC[C@@]1(C(=O)Nc2cncc3ccccc23)CCOc2cc(Cl)c(Cl)cc21` (stereo in doubt), 13 µM and 21.9 µM. Under `Nc1nn(C(=O)Cc2cccc(Cl)c2)c2cccc(F)c12` stands greater than 99.5 µM; under `CC(C)(C)c1ccc(N(C(=O)c2cocn2)C(C(=O)NCCc2cccc(F)c2)c2cncnc2)cc1` (centres undefined), 2.92 µM; under `CS(=O)(=O)c1ncc(Cl)c(C(=O)Nc2ccccc2Cc2ccccc2)n1`, 0.469 µM and 0.54 µM.

`COc1ccc2cncc(NC(=O)C3CCNc4cc(Cl)c(Cl)cc43)c2c1` (centres undefined): the IC50 was 0.131 µM. As for `O=C(c1cc(=O)[nH]c2ccccc12)N1CCN(c2cccc(Cl)c2)C(=O)C1`, the half-inhibitory concentration (IC50) came to 15.8 µM.

Molecule `O=C(CN1CC(C(=O)Nc2cncc3cc(F)ccc23)c2cc(Cl)ccc2C1=O)NCC(F)(F)F` (centres undefined) gave an IC50 of 0.879 µM. `COc1ccccc1OCCNC(=O)C1CC(=O)Nc2ccccc21` (centres undefined) gave an IC50 greater than 99.5 µM. Then `Cc1cccc(NC(=O)[C@@H](c2ccccc2)N2Cc3ccccc3C2=O)n1` (stereo in doubt), with greater than 99.5 µM; and `N#CC1(CS(=O)(=O)N2Cc3ccc(Cl)cc3C3(CCN(c4cncc5ccccc45)C3=O)C2)CCCC1` (centres undefined), with 0.244 µM.

On to `CC(C)C[C@H]1CN(C(=O)CCl)CCN1Cc1cccc(Cl)c1` (stereo in doubt), for which the IC50 was 0.759 µM and 0.641 µM. `N#Cc1ccc(N(C(=O)c2cocn2)C(C(=O)NCCc2cccc(F)c2)c2cccnc2)cc1` (centres undefined) registered an IC50 greater than 99.5 µM. Then `C=CC(=O)N(c1ccc(C(C)(C)C)cc1)C(C(=O)Nc1ccc(OC)cc1OC)c1cccnc1` (centres undefined), with 6.47 µM; and `CCOC(=O)N1Cc2ccc(Cl)cc2C(C(=O)Nc2cncc3ccccc23)C1` (centres undefined), with 0.236 µM. Then `O=C(Cc1cc(Cl)cc(NC(c2ccccc2)c2ccccc2)c1)Nc1cncc2ccccc12`, with 3.36 µM; and `CC(C)(C)c1ccc(N(C(=O)c2ccco2)C(C(=O)NCCc2cccc(F)c2)c2[nH]nc3ccccc23)cc1` (centres undefined), with greater than 99.5 µM. For the molecule `O=C(Cc1cc(Cl)cc(Oc2cccc(=O)[nH]2)c1)Nc1cncc2ccccc12`, the IC50 was 1.98 µM.

For the molecule `O=C(Nc1cncc2ccccc12)C1CN(S(=O)(=O)CC2CC2(F)F)Cc2ccc(Cl)cc21` (centres undefined), the half-inhibitory concentration (IC50) turned out to be 0.159 µM. Then `NC1CCc2c(NC(=O)C3CCOc4ccc(Cl)cc43)cncc21` (centres undefined), with 25.8 µM. Then `CC(=O)NC(C(=O)Nc1cncc2ccccc12)c1ccc(Cl)c(Cl)c1` (centres undefined), with 4.05 µM; and `O=C(Cc1cccc(Cl)c1F)Nc1cncc2ccccc12`, with 23.6 µM.

`CN(C)c1ccc(N(Cc2cccc(Cl)c2)C(=O)Cn2nnc3ccccc32)cc1` showed a concentration for half-maximal inhibition (IC50) of 0.497 µM. Regarding `O=C(Nc1[nH]nc2cccc(F)c12)C1CCOc2ccc(Cl)cc21` (centres undefined), the half-maximal inhibitory concentration (IC50) is greater than 99.5 µM. `CCNC(=O)CN1CC(C(=O)Nc2cncc3ccccc23)c2cc(Cl)ccc2C1=O` (centres undefined): the IC50 is 0.0628 µM and 0.105 µM and 0.143 µM. The molecule `CS(=O)(=O)c1ccc2c(N3CCC4(CN(S(=O)(=O)CC5(C#N)CC5)Cc5ccc(Cl)cc54)C3=O)cncc2c1` (centres undefined) yielded a 50% inhibitory concentration (IC50) of 0.103 µM. Turning to `C[C@@]1(C(=O)Nc2cncc3ccccc23)CCNc2cc(Cl)c(Cl)cc21` (stereo in doubt), the IC50 was 0.234 µM and 0.979 µM. On to `COC(OC)C(=O)N1CCN(Cc2cccc(Cl)c2)CC1`, for which the IC50 is 93.9 µM and 94.3 µM. Then `O=C(Cc1cc(Cl)cc(N2CCc3ccccc3[C@H]2c2ccccc2)c1)Nc1cncc2ccccc12` (stereo in doubt), with 2.78 µM. `O=C(Cc1cc(Cl)cc(NC[C@@H](c2cccnc2)N2CCOCC2)c1)Nc1cncc2ccccc12` (stereo in doubt) yielded a 50% inhibitory concentration (IC50) of 2.58 µM. As to `O=C(Cc1cc(Cl)cc(Nc2ccc(-n3cccn3)cc2)c1)Nc1cncc2ccccc12`, the IC50 came to 2.12 µM. Consider `Cc1ccncc1NC(=O)Cc1cncc(Cl)c1`, for which the half-inhibitory concentration (IC50) amounted to 46.4 µM. `C=CC(=O)N(c1ccc(C(C)(C)C)cc1)C(C(=O)NCCc1cccc(F)c1)c1cncc(C#N)c1` (centres undefined) displayed an IC50 of 7.48 µM.

With `CCN(Cc1ccc(F)cc1)c1cc(Cl)cc(CC(=O)Nc2cncc3ccccc23)c1`, the IC50 was greater than 99.5 µM. Then `O=C(Cc1cc(Cl)cc(N2CCN(c3ccccc3[N+](=O)[O-])CC2)c1)Nc1cncc2ccccc12`, with 4.01 µM; and `CN1Cc2c(Cl)cc(Cl)cc2[C@H](c2cccc(S(=O)(=O)NCCOCCOCCNC(=O)NCCCCNC(=O)NCCOCCOCCNS(=O)(=O)c3cccc([C@@H]4CN(C)Cc5c(Cl)cc(Cl)cc54)c3)c2)C1` (stereo in doubt), with greater than 99 µM; and `O=C(Nc1cncc2ccccc12)C1CN(S(=O)(=O)CC2(F)CC2)Cc2ccc(Cl)cc21` (centres undefined), with 0.176 µM. In turn, `CCc1n[nH]c(=O)c(-c2nc(-c3c[nH]c4ncccc34)cs2)c1CC` displayed an IC50 greater than 99.5 µM. For `O=C(Cc1cccc(Cl)c1)N1CC(O)Cc2ccccc21` (centres undefined), the 50% inhibitory concentration (IC50) was greater than 99.5 µM. Under `O=C(Cc1cc(Cl)cc(N2CCC(O)(c3ccc(Cl)cc3)CC2)c1)Nc1cncc2ccccc12` stands 5.21 µM; under `Cc1cc2ncc(C(=O)Nc3ccc4oc(C)nc4c3)c(C)n2n1`, greater than 99.5 µM.

With `COc1cc(CN2CCN(C(=O)CCl)CC2)c2ccccc2c1`, the 50% inhibitory concentration (IC50) was determined as 2.75 µM. Regarding `Cc1ncc(CO)c(CNc2cc(Cl)cc(CC(=O)Nc3cncc4ccccc34)c2)c1O`, the IC50 came out at 9.11 µM. Then `CN1CCN(c2ccccc2Nc2cc(Cl)cc(CC(=O)Nc3cncc4ccccc34)c2)CC1`, with 2.09 µM. Then `O=C(CCl)N1CCN(S(=O)(=O)c2ccsc2)[C@H](C(=O)N2CCOCC2)C1` (stereo in doubt), with 2.88 µM; and `O=C(Nc1cc[nH]c(=O)c1)C1CCOc2ccc(Cl)cc21` (centres undefined), with greater than 99.5 µM. Then `CN(c1ccc2c(NC(=O)Cc3cccc(Cl)c3)cncc2c1)S(C)(=O)=O`, with 2.7 µM.

On to `O=C(Nc1cncc2c1CCCC2)[C@H]1CNS(=O)(=O)c2ccc(Cl)cc21` (stereo in doubt), for which the IC50 turned out to be 0.723 µM.

For `CCCCCC(=O)SCCNC(=O)CCNC(=O)[C@H](O)C(C)(C)COP(=O)(O)OP(=O)(O)OC[C@H]1O[C@@H](n2cnc3c(N)ncnc32)[C@H](O)[C@@H]1OP(=O)(O)O` (stereo in doubt), the IC50 was 46.1 µM and 85.1 µM. Then `O=C(Nc1cnc2nccn2c1)c1cn2c(Br)cnc2s1`, with greater than 99.5 µM. Then `CCCc1cc2c(cc1S(=O)(=O)N1CCN(c3cccc(Cl)c3Cl)CC1)OCO2`, with greater than 99.5 µM; and `COc1ccccc1OCCNC(=O)c1cc(=O)cc[nH]1`, with greater than 99.5 µM. The molecule `Cc1ccncc1NC(=O)CN1CCCCC1` registered a half-inhibitory concentration (IC50) greater than 99.5 µM. For the molecule `Cc1ccc(S(=O)(=O)N2CCN(C(=O)c3cc(=O)[nH]c4cc(F)ccc34)CC2)c(C)c1`, the concentration for half-maximal inhibition (IC50) was greater than 99.5 µM. Then `C=CC(=O)N(c1ccc(C(C)(C)C)cc1)C(C(=O)Nc1ccc(OC)cc1C)c1cccnc1` (centres undefined), with greater than 99 µM. `Cc1ccc(N(C(=O)c2cocn2)C(C(=O)NCCc2cccc(F)c2)c2cccnc2)cc1` (centres undefined) registered a concentration for half-maximal inhibition (IC50) of 50.2 µM. Under `CC(C)=CCC[C@@](C)(O)[C@H]1CC[C@]2(C)[C@@H]1[C@H](O)C[C@@H]1[C@@]3(C)CC[C@H](O[C@@H]4O[C@H](CO)[C@@H](O)[C@H](O)[C@H]4O)C(C)(C)[C@@H]3CC[C@]12C` (stereo in doubt) stands greater than 99.5 µM; under `Cc1nnc(CNc2ccc3nnc(-c4ccccc4)n3n2)o1`, greater than 99.5 µM. Regarding `CC(C)(C)c1ccc(N(C(=O)c2ccco2)C(C(=O)N2CCOCC2)c2cccnc2)cc1` (centres undefined), the IC50 came out at 41 µM. Consider `COC(C)(C)CS(=O)(=O)N1Cc2ccc(Cl)cc2C(C(=O)Nc2cncc3ccccc23)C1` (centres undefined), for which the IC50 was found to be 0.2 µM. Under `O=C(NCCc1cccc(F)c1)C(c1cccnc1)N(C(=O)c1cocn1)c1cnc(C2CCC2)nc1` (centres undefined) stands 69.1 µM; under `Cc1nc2cc(NC(=O)Cn3cnc4c(cnn4C)c3=O)ccc2o1`, greater than 99.5 µM.
